Measurements published in patent publication US4435329A, “Substituted N-(ω-aroylpropionyl) derivatives of α-amino acids and esters thereof” (American Cyanamid Company, priority 1981, dated 1984).

System: angiotensin converting enzyme
Test: in vitro spectrophotometric assay for inhibition of angiotensin converting enzyme (method of Cushman and Cheung)
Type: biochemical
Details: crude extract of ACE from rabbit lung acetone powder; substrate benzoyl-glycyl-histidyl-leucine; 30 minutes at 37° C.; result in words only
Method: The in vitro activity for inhibition of the angiotensin converting enzyme was measured by the method of D. W. Cushman and H. S. Cheung, Biochem. Pharmacol., Vol. 20, pages 1637-1648 (1972), using benzoyl-glycyl-histidyl-leucine as the substrate. The reaction mixture consisted of 50 μl. of potassium phosphate (500 mM., pH of […]), 30 μl. of sodium chloride (2500 mM.), 25 μl. of substrate (50 mM.), 30 to 50 μl. of the crude extract of ACE, 10 μl. of the test compound (2.5 mM.) or vehicle, and a suitable amount of distilled water to give a total volume of 250 μl. This reaction mixture was incubated for 30 minutes at 37° C. and the reaction was then terminated by the addition of 250 μl. of 1 N hydrochloric acid. The hippuric acid was then extracted with 1.5 ml. of ethyl acetate by vortex mixing for 15 seconds. After centrifugation, one ml. of the ethyl acetate layer was pipetted into a new tube and evaporated to dryness. The extracted hippuric acid was then dissolved in one ml. of water and the amount of this acid was then measured by its absorbance at 228 nm. […] The activity of the ACE inhibitor was calculated as the percent inhibition of ACE activity compared to the control value of that particular assay. […]

inhibition of the angiotensin converting enzyme | SMILES
angiotensin converting enzyme inhibitors | CC(=O)SC(CC(=O)N[C@H](C(=O)O)C(C)C)C(=O)c1ccc(Br)cc1 (stereo partly drawn) [Example 1, N-[3-Acetylthio-3-(4-bromobenzoyl)propionyl]-L-valine]
angiotensin converting enzyme inhibitors | COc1ccc(C(=O)C(CC(=O)N[C@@H](Cc2ccccc2)C(=O)O)SC(C)=O)cc1F (stereo partly drawn) [Example 23, N-[3-Acetylthio-3-(3-fluoro-4-methoxybenzoyl)propionyl]-L-phenylalanine]
